Assay results: patent publication US9249178B2, “Tricyclic nucleosides and oligomeric compounds prepared therefrom” (UNIVERSITÄT BERN, priority 2012, dated 2016)

Key:
complementary DNA = test: Tm study of 10mer oligomeric compounds duplexed to DNA; assay type: binding; details: 150 mM NaCl, 10 mM phosphate, 0.1 mM EDTA, pH 7; for ΔTm/mod (° C.) vs DNA: duplex with complementary DNA, compared to unmodified 10mer A01
Description: (§1) The relative ability of a chemically-modified oligomeric compound to bind to complementary nucleic acid strands, as compared to natural oligonucleotides, is measured by obtaining the melting temperature of a hybridization complex of said chemically-modified oligomeric compound with its complementary unmodified target nucleic acid. The melting temperature (Tm), a characteristic physical property of double helixes, denotes the temperature in degrees centigrade at which 50% helical versus coiled (unhybridized) forms are present. Tm (also commonly referred to as binding affinity) is measured by using the UV spectrum to determine the formation and breakdown (melting) of hybridization. Base stacking, which occurs during hybridization, is accompanied by a reduction in UV absorption (hypochromicity). Consequently a reduction in UV absorption indicates a higher Tm. Following standard automated DNA synthesis protocols oligomeric compounds were prepared comprising one or more tricyclic nucleosides for Tm studies. After cleavage from the solid support, the oligomeric compounds were purified by ion exchange HPLC and analyzed by LCMS using standard procedures. The Tm of the modified 10mer oligomeric compounds were compared to an unmodified 10mer DNA oligonucleotide when duplexed to either DNA or RNA. Tm's were determined using a Cary 100 Bio spectrophotometer with the Cary Win UV thermal program was used to measure absorbance vs. temperature. For the Tm experiments, the oligomeric compounds were prepared at a concentration of […] in a buffer of 150 mM NaCl, 10 mM phosphate, 0.1 mM EDTA at pH 7. The concentration determined at 85° C. was […] after mixing of equal volumes of selected oligomeric compound and complementary RNA or DNA. The oligomeric compounds were hybridized with a complementary RNA or DNA by heating the duplex to 90° C. for 5 minutes and then cooling to room temperature. Tm measurements were taken using a spectrophotometer while the duplex solution was heated in a cuvette at a rate of 0.5° C./min starting at 15° C. until the temperature was 85° C. Tm values were determined using Vant Hoff calculations (A260 vs temperature curve) using non self-complementary sequences where the minimum absorbance related to the duplex and the maximum absorbance related to the non-duplex single strand are manually integrated into the program.

complementary RNA = test: Tm study of 10mer oligomeric compounds duplexed to RNA; assay type: binding; details: 150 mM NaCl, 10 mM phosphate, 0.1 mM EDTA, pH 7; for ΔTm/mod (° C.) vs RNA: duplex with complementary RNA, compared to unmodified 10mer A01
Description: as §1

Row | Substance | ΔTm/mod (° C.) vs DNA (complementary DNA) | ΔTm/mod (° C.) vs RNA (complementary RNA) | Tm duplexed with DNA (complementary DNA) | Tm duplexed with RNA (complementary RNA)
1 | AACTGTdCACG (AACTGT_{d}CACG; as printed in the source, key not given here) [A03, 10mer phosphodiester DNA with one tricyclic nucleoside of subscript d, subscripts drawn in drawing 18] | +0.5 °C | +2.1 °C |  | 
2 | AACTdGTdCACG (AACT_{d}GT_{d}CACG; as printed in the source, key not given here) [A08, 10mer phosphodiester DNA with two tricyclic nucleosides of subscript d] | −0.6 °C | +1.2 °C |  | 
3 | AACTeGTeCACG (AACT_{e}GT_{e}CACG; as printed in the source, key not given here) [A09, 10mer phosphodiester DNA with two tricyclic nucleosides of subscript e (tc^hdT)] | −13.0 °C | −10.2 °C |  | 
4 | AACTbGTbCACG [A06] | −0.7 °C | +0.5 °C |  | 
5 | AACTbGTCACG [A04] | +0.1 °C | +2.4 °C |  | 
6 | AaAaCaTdGaTaCaAaCaGa [A13] | −3.8 °C | −2.6 °C |  | 
7 | AACTGTbCACG [A02] | −0.9 °C | +0.4 °C |  | 
8 | AaAaCaTbGaTbCaAaCaGa [A14] | +1.1 °C | +2.0 °C |  | 
9 | AaAaCaTdGaTdCaAaCaGa [A16] | +1.1 °C | +2.3 °C |  | 
10 | AaAaCaTaGaTdCaAaCaGa [A12] | −2.8 °C | −0.6 °C |  | 
11 | AaAaCaTcGaTcCaAaCaGa [A15] | +1.1 °C | +2.0 °C |  | 
12 | AaAaCaTaGaTaCaAaCaGa [A11, reference compound] | +1.3 °C | +2.1 °C |  | 
13 | AACTcGTcCACG [A07] | −1.0 °C | +1.3 °C |  | 
14 | AACTdGTCACG (AACT_{d}GTCACG; as printed in the source, key not given here) [A05, 10mer phosphodiester DNA with one tricyclic nucleoside of subscript d] | +0.4 °C | +2.4 °C |  | 
15 | AACTGTCACG (unmodified DNA) [A01, unmodified 10mer DNA oligonucleotide, phosphodiester linkages, reference compound] | 0 °C | 0 °C | 47.9 °C | 48.3 °C
16 | AACTfGTfCACG (AACT_{f}GT_{f}CACG; as printed in the source, key not given here) [A10, 10mer phosphodiester DNA with two tricyclic nucleosides of subscript f] | −2.0 °C | +1.3 °C |  | 
